# According to PubChem BioAssay (NCI):
#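 These data come from cells grown in 96-well plates and exposed to compound for 48 hours at five concentrations. At the GI50, growth is halved. TGI marks complete inhibition of growth.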
# Assays:
# Assay in all cases: growth of human tumour cells (NCI), 48 h
# 786-0 renal = system: 786-0 renal
# A498 renal = system: A498 renal
# A549 NSCLC = system: A549 NSCLC
# ACHN renal = system: ACHN renal
# BT-549 breast = system: BT-549 breast
# CAKI-1 renal = system: CAKI-1 renal
# CCRF-CEM leukemia = system: CCRF-CEM leukemia
# COLO 205 colon = system: COLO 205 colon
# DU-145 prostate = system: DU-145 prostate
# EKVX NSCLC = system: EKVX NSCLC
# HCC-2998 colon = system: HCC-2998 colon
# HCT-116 colon = system: HCT-116 colon
# HCT-15 colon = system: HCT-15 colon
# HL-60(TB) leukemia = system: HL-60(TB) leukemia
# HOP-62 NSCLC = system: HOP-62 NSCLC
# HOP-92 NSCLC = system: HOP-92 NSCLC
# HS 578T breast = system: HS 578T breast
# HT29 colon = system: HT29 colon
# IGROV1 ovarian = system: IGROV1 ovarian
# K-562 leukemia = system: K-562 leukemia
# KM12 colon = system: KM12 colon
# LOX IMVI melanoma = system: LOX IMVI melanoma
# M14 melanoma = system: M14 melanoma
# MALME-3M melanoma = system: MALME-3M melanoma
# MCF7 breast = system: MCF7 breast
# MDA-MB-231 breast = system: MDA-MB-231 breast
# MDA-MB-435 = system: MDA-MB-435
# MOLT-4 leukemia = system: MOLT-4 leukemia
# NCI-H226 lung = system: NCI-H226 lung
# NCI-H23 lung = system: NCI-H23 lung
# NCI-H460 lung = system: NCI-H460 lung
# NCI-H522 lung = system: NCI-H522 lung
# NCI/ADR-RES ovarian = system: NCI/ADR-RES ovarian
# OVCAR-3 ovarian = system: OVCAR-3 ovarian
# OVCAR-4 ovarian = system: OVCAR-4 ovarian
# OVCAR-5 ovarian = system: OVCAR-5 ovarian
# OVCAR-8 ovarian = system: OVCAR-8 ovarian
# PC-3 prostate = system: PC-3 prostate
# RPMI-8226 leukemia = system: RPMI-8226 leukemia
# RXF 393 renal = system: RXF 393 renal
# SF-268 CNS = system: SF-268 CNS
# SF-295 CNS = system: SF-295 CNS
# SF-539 CNS = system: SF-539 CNS
# SK-MEL-2 melanoma = system: SK-MEL-2 melanoma
# SK-MEL-28 melanoma = system: SK-MEL-28 melanoma
# SK-MEL-5 melanoma = system: SK-MEL-5 melanoma
# SK-OV-3 ovarian = system: SK-OV-3 ovarian
# SN12C renal = system: SN12C renal
# SNB-19 CNS = system: SNB-19 CNS
# SNB-75 CNS = system: SNB-75 CNS
# SR leukemia = system: SR leukemia
# SW-620 colon = system: SW-620 colon
# T-47D breast = system: T-47D breast
# TK-10 renal = system: TK-10 renal
# U251 CNS = system: U251 CNS
# UACC-257 melanoma = system: UACC-257 melanoma
# UACC-62 melanoma = system: UACC-62 melanoma
# UO-31 renal = system: UO-31 renal
structure (smiles),measurement,setting,value
COc1cc2c(cc1OCCCN1CCN(C(=S)SCCC(C#N)(c3ccccc3)c3ccccc3)CC1)N=C[C@@H]1CCCN1C2=O,GI50,786-0 renal,493 nM
same,TGI,786-0 renal,1080 nM
same,GI50,A498 renal,1000 nM
same,TGI,A498 renal,2320 nM
same,GI50,A549 NSCLC,1250 nM
same,TGI,A549 NSCLC,7360 nM
same,GI50,ACHN renal,875 nM
same,TGI,ACHN renal,2120 nM
same,GI50,BT-549 breast,1070 nM
same,TGI,BT-549 breast,3790 nM
same,GI50,CAKI-1 renal,357 nM
same,TGI,CAKI-1 renal,1480 nM
same,GI50,CCRF-CEM leukemia,235 nM
same,TGI,CCRF-CEM leukemia,537 nM
same,GI50,COLO 205 colon,1300 nM
same,TGI,COLO 205 colon,2780 nM
same,GI50,DU-145 prostate,469 nM
same,GI50,EKVX NSCLC,2170 nM
same,TGI,EKVX NSCLC,5270 nM
same,GI50,HCC-2998 colon,1510 nM
same,TGI,HCC-2998 colon,2940 nM
same,GI50,HCT-116 colon,388 nM
same,TGI,HCT-116 colon,1560 nM
same,GI50,HCT-15 colon,1680 nM
same,TGI,HCT-15 colon,3480 nM
same,GI50,HL-60(TB) leukemia,876 nM
same,GI50,HOP-62 NSCLC,121 nM
same,TGI,HOP-62 NSCLC,456 nM
same,GI50,HOP-92 NSCLC,545 nM
same,TGI,HOP-92 NSCLC,3850 nM
same,GI50,HS 578T breast,560 nM
same,TGI,HS 578T breast,3680 nM
same,GI50,HT29 colon,944 nM
same,TGI,HT29 colon,> 20700 nM
same,GI50,IGROV1 ovarian,381 nM
same,TGI,IGROV1 ovarian,1740 nM
same,GI50,K-562 leukemia,573 nM
same,GI50,KM12 colon,1640 nM
same,GI50,LOX IMVI melanoma,721 nM
same,TGI,LOX IMVI melanoma,2030 nM
same,GI50,M14 melanoma,1170 nM
same,TGI,M14 melanoma,2670 nM
same,GI50,MALME-3M melanoma,938 nM
same,TGI,MALME-3M melanoma,2190 nM
same,GI50,MCF7 breast,330 nM
same,TGI,MCF7 breast,1530 nM
same,GI50,MDA-MB-231 breast,1320 nM
same,TGI,MDA-MB-231 breast,3190 nM
same,GI50,MDA-MB-435,555 nM
same,TGI,MDA-MB-435,2940 nM
same,GI50,MOLT-4 leukemia,375 nM
same,GI50,NCI-H226 lung,1510 nM
same,TGI,NCI-H226 lung,3150 nM
same,GI50,NCI-H23 lung,1070 nM
same,TGI,NCI-H23 lung,2700 nM
same,GI50,NCI-H460 lung,891 nM
same,GI50,NCI-H522 lung,523 nM
same,TGI,NCI-H522 lung,2430 nM
same,GI50,NCI/ADR-RES ovarian,3690 nM
same,TGI,NCI/ADR-RES ovarian,> 51500 nM
same,GI50,OVCAR-3 ovarian,488 nM
same,TGI,OVCAR-3 ovarian,1260 nM
same,GI50,OVCAR-4 ovarian,2150 nM
same,TGI,OVCAR-4 ovarian,> 43700 nM
same,GI50,OVCAR-5 ovarian,1140 nM
same,TGI,OVCAR-5 ovarian,2440 nM
same,GI50,OVCAR-8 ovarian,1310 nM
same,TGI,OVCAR-8 ovarian,> 48300 nM
same,GI50,PC-3 prostate,1450 nM
same,TGI,PC-3 prostate,> 100000 nM
same,GI50,RPMI-8226 leukemia,420 nM
same,GI50,RXF 393 renal,192 nM
same,TGI,RXF 393 renal,360 nM
same,GI50,SF-268 CNS,386 nM
same,GI50,SF-295 CNS,1110 nM
same,TGI,SF-295 CNS,3810 nM
same,GI50,SF-539 CNS,1450 nM
same,TGI,SF-539 CNS,3370 nM
same,GI50,SK-MEL-2 melanoma,1080 nM
same,TGI,SK-MEL-2 melanoma,2910 nM
same,GI50,SK-MEL-28 melanoma,1650 nM
same,TGI,SK-MEL-28 melanoma,3070 nM
same,GI50,SK-MEL-5 melanoma,1310 nM
same,TGI,SK-MEL-5 melanoma,2750 nM
same,GI50,SK-OV-3 ovarian,2520 nM
same,TGI,SK-OV-3 ovarian,6390 nM
same,GI50,SN12C renal,820 nM
same,TGI,SN12C renal,2500 nM
same,GI50,SNB-19 CNS,2190 nM
same,GI50,SNB-75 CNS,1310 nM
same,TGI,SNB-75 CNS,2900 nM
same,GI50,SR leukemia,431 nM
same,GI50,SW-620 colon,514 nM
same,TGI,SW-620 colon,1940 nM
same,GI50,T-47D breast,1580 nM
same,GI50,TK-10 renal,1090 nM
same,TGI,TK-10 renal,2870 nM
same,GI50,U251 CNS,405 nM
same,TGI,U251 CNS,1430 nM
same,GI50,UACC-257 melanoma,1990 nM
same,TGI,UACC-257 melanoma,3900 nM
same,GI50,UACC-62 melanoma,1130 nM
same,TGI,UACC-62 melanoma,2380 nM
same,GI50,UO-31 renal,1100 nM
same,TGI,UO-31 renal,2320 nM
